Here are results for one compound from patent EP2045247B1, “Compounds for the inhibition of histone deacetylase” (NatureWise Biotech & Medicals Corporation, priority 2007, dated 2009).

For one assay, the system named is cortical neurons. Put plainly: Neurite outgrowth of cortical neurons cultivated from fetal rat neural stem cells. The assay is classed as cell-based, Wistar rat. Conditions: 0.63 µg/mL. The protocol:
The growth medium for the NSCs (neural stem cells) and cortical neurons was prepared by adding penicillin G, streptomycin and 0.5 mM of L-glutamine into a B-27 supplemented neurobasal medium (Gibco). The unborn fetus was taken out of the fetal sac in the abdominal cavity of a 17-day pregnant Wistar rat under anesthesia. The cerebral tissue was removed from the fetus and treated with 0.1 % trypsin solution at 25 °C for three minutes. After washing with PBS solution 3 times, the cells were dissociated by up and down mixing. The resulting solution was passed through a 70µm Nylon cell strainer (Falcon) in order to obtain the filtrate that contained cerebral cells. The filtrate was centrifuged at 1000 rpm for 10 minutes and the supernatant was aspirated. The resulting pellet was resuspended in the growth medium prepared as stated above. The resulting suspension contained NSCs.
The cells obtained from the suspension were cultivated in 6-well plates coated with 30 µg/ml of poly-D-lysine (Sigma) at the density of 75 cells/mm^2. The cells were cultured at 37 °C, 5% CO2 and 95% relative humidity. The growth media contained 0.63 µg/mL of NBM-HD-1 and the growth media with 1 µl of DMSO was used as the control. […]
After cultivation for 6 days, live cells were observed by microscope. The lengths of the neurites of the neurons in 6 different fields were measured and averaged. […]

The test system of the next assay is p21. Put plainly: RT-PCR of p21 mRNA in MCF-7 cells. It counts as cell-based, human. The settings on record: different doses, 24 hours (Fig. 10). As for the experimental part:
The cell cycle related to p21 mRNA expression was examined by RT-PCR. The total RNAs were isolated from the treated MCF-7 cells and used in the RT reaction. cDNA (1µl) was used as a template to amplify p21 gene by PCR. GAPDH was used as an internal control. […] In this experiment, MCF-7 cells were treated with different doses of NBM-HD-1 for 24 hours.

The next assay concerns HDAC. The experiment in a line: HDAC activity assay (fluorometric kit) on nuclear extracts of treated C6 glioma cells. The assay is classed as cell-based, rat. The settings on record: C6 glioma cells treated 24 hours, nuclear extract, fluorescence (Fig. 6). As for the experimental part: The C6 glioma cells were treated with different doses of NBM-HD-1 and sodium butyrate (SB). After 24 hours, the cells were harvested to extract the nuclear proteins by NucBuster™ Protein Extraction Kit (Novagen) as described by the manufacturer's instructions. These extracts were then used in HDAC Activity Assay Kit (Calbiochem) to analyze their HDAC (histone deacetylase) inhibition activities. The HDAC fluorometric substrate, which comprises an acetylated lysine side chain, was incubated with extracted nuclear protein first. Deacetylation of the substrate sensitized the substrate, so that, in the second step, treatment with the Lysine Developer produced a fluorophore. The fluorophore can easily be analyzed by using a fluorescence plate reader. […] Inhibition of HDAC has been implicated in the induction of differentiation in cancer cells. In this experiment, a well-known compound for HDAC inhibition, sodium butyrate, was used as a positive control.

The test system of a further assay is MCF-7 cancer cells. The experiment in a line: Cell cycle analysis of MCF-7 cells by FACScan cytometry. The assay is classed as cell-based, human. Conditions: 0, 2.5, 5 and 10µg/mL, 72 hours (Fig. 9). As for the experimental part:
1×10^6 of rat C6 glioma cells were treated with various concentrations of NBM-HD-1 (0 µg/mL, 2.5 µg/mL, 5 µg/mL, and 10 µg/mL) for 72 hours. The treated cells were trysinized and collected. The cells were resuspended in 200 µL PBS and then fixed by adding 800 µL of cold 100% ethanol. The resulting cells were fixed overnight at -20[…]. The cell pellets were collected by centrifugation, resuspended in 1 mL of hypotonic buffer (0.5% Triton X-100 in PBS and 1 µg/mL RNase A), and incubated at 37 °C for 30 minutes. Then, 1 mL of PI solution (50 µg/mL) was added to the resulting cell pellets. The mixture was allowed to stand at 4[…] for 30 min. The DNA amounts of the cells were analyzed by FACScan Cytometry (Becton Dickinson) (see Fig. 2).
MCF-7 cancer cells (1×10^6) in a 100-mm dish were treated with various concentrations of NBM-HD-1 (0, 2.5, 5, and 10µg/mL) or 4mM sodium butyrate for 72 hours. The samples were prepared following the steps mentioned in [0063]. The DNA of the cells was then analyzed by FACScan cytometry (Becton Dickinson). […] The percentage of G0/G1 phase increased from 74.46 to 92.55 in a dose-dependent manner.

For assay [1], the system named is human giloblastoma DBTRG-05MG cancer cells. Put plainly: Inhibition of growth and change of morphology of DBTRG-05MG cells. It counts as cell-based. The protocol: The human giloblastoma DBTRG-05MG cancer cells were cultured in RPMI medium 1640 (Gibco) supplemented with penicillin G, streptomycin sulphate, 0.5 mM of L-glutamine and 10% fetal bovine serum (FBS; Gibco), 100mh/L sodium pyruvate (Gibco), and 1% NEAA (Gibco) at 37 °C, 5% CO2 and 95% relative humidity. For these experiments, the cells were seeded at a density of 3×10^5 per well of 6-well plates. After 24 hours, the cells were treated with different concentrations of NBM-HD-1 and 4 mM sodium butyrate. The cells were observed and counted after 72 hours. […] In 05MG cells (Fig. 7(A)), after incubation with 2.5 µg/mL (Fig. 7(A)-b), 5 µg/mL (Fig. 7(A)-c) and 10 µg/mL (Fig.7(A)-d) of NBM-HD-1 for 72 hours, the density of the cells reduced dramatically in comparison with that of the control group (Fig. 7(A)-a). The 05MG cells in the experimental group also changed to become longer than those in the control group.

For another assay, the system named is GFAP. The experiment in a line: GFAP expression in C6 glioma cells (immuno-fluorescent staining and RT-PCR), differentiation marker. It counts as cell-based, rat. The protocol: After the C6 glioma cells were incubated with 10 µg/mL NBM-HD-1 for 24 hours, they were fixed and analyzed by the traditional immuno-fluorescent staining method. Staining of glia was carried out by using glial-specific GFAP antibody (SIGMA) as the primary antibody and a fluorescence labeled rabbit immuno-globulin (SIGMA) as the secondary antibody to bind with the primary antibody. The cells which are GFAP-positive were excited by a specific light source to emit fluorescence. Also, the nuclei were stained with DAPI. […] In contrast with the control group, more GFAP proteins were detected in the photos of the cells being treated with 10 µg/mL of NBM-HD-1.
The GFAP mRNA expression was examined by RT-PCR.

Turning to `COc1cc2c(c(OC)c1CCC(C)(C)O)C(=O)C[C@@H](c1ccc(OC)c(OC)c1C/C=C(\C)CCCC(C)(C)O)O2` [NBM-HD-1], the “average length of the neurites” value in the assay on cortical neurons (6 days, 6 different fields, versus DMSO control (Fig. 12(B))) is “greater than that of the control group”. The neurite outgrowth result with cortical neurons (cultivation for 6 days (Fig. 12)) is listed as “could promote the neurite outgrowth”. For the same compound, in the assay on p21, the “p21 mRNA expression” value is listed as “induced the expression of p21 in a dose-dependent manner”. In addition, in the assay on HDAC, the HDAC activity result is “significantly inhibits HDAC activity”. In addition, the “S and G2/M phases of the cells” value with MCF-7 cancer cells is “significantly decreased both S and G2/M phases of the cells in a dose-dependent manner”. Besides, the “morphology of 05MG cancer cells” value in assay [1] (2.5, 5 and 10 µg/mL, 72 hours (Fig. 7(A))) is “change the morphology of 05MG cancer cells”. Moreover, in assay [1] (NBM-HD-1 2.5, 5 and 10 µg/mL, sodium butyrate 4 mM, 72 hours, density and cell counting (Fig. 7)), the “growth of 05MG cells” value was “can inhibit the growth of 05MG cells in a dose-dependent manner”. For the same compound, the “GFAP expression (immuno-fluorescent staining)” value with GFAP (10 µg/mL, 24 hours (Fig. 4(A))) is “can induce the GFAP expression of C6 glioma cancer cells”. Besides, the “GFAP mRNA expression” value in the assay on GFAP (RT-PCR (Fig. 4(B))) is reported as “increased in a dose-dependent manner”.
